Entries after “also recorded” stand apart in the source; their conditions may differ.
Key:
M5076 sarcoma [1] = experiment: Response of s.c. implanted M5076 sarcoma (Table 4); format: in vivo, murine
Procedure: Response of S.C. Implanted M5076 Sarcoma to Treatment with
The compounds were injected i.p. daily on days 11-15.

[2] = tested on: MCF-7 mammary tumor xenograft; design: species or system human; settings: in vivo; for Days delay (T-C): sc
P388 leukemia [3] = tested on: P388 leukemia; design: species or system murine; settings: mouse, in vivo
[4] = tested on: experimental leukemias and solid tumors; design: species or system mice and rats; settings: in vivo
[5] = tested on: MX-1 mammary tumor xenograft; format: in vivo, human; settings: experiment analogous to MCF-7
mammary tumor 16/C = tested on: mammary tumor 16/C; design: species or system murine; settings: mouse, in vivo
in vivo [6] = settings: mouse, ip
in vivo [7] = settings: mouse, ip; remark: listed apart in the source
M5076 sarcoma [8] = settings: historical; cited from earlier work
[9] = clinical; cited from earlier work
L1210/CPA leukemia = format: in vivo, male CDF1 mice; settings: L1210/CPA, i.p. day 2 only at MTD (CPA 200, Ifos 431, IPM 100 mg/kg)
LOX-IMVI melanoma = experiment: Evaluation against i.p. implanted LOX-IMVI melanoma (Table 6); format: in vivo, human
Procedure: BM-IPM was evaluated vs. human LOX-IMVI melanoma and produced a 52% increase in life span (ILS) and 20% survivors, while IPM yielded an identical ILS with no survivors.
Evaluation of BM-IPM Against I.P. Implanted Human
Treatment: IP: Q1DX1 (1) Therapeutic Response

Lewis lung carcinoma = settings: mouse, in vivo
P388 leukemia [10] = settings: historical; cited from earlier work
L1210/0 leukemia = settings: L1210/0, i.p. day 2 only at MTD (CPA 200, Ifos 431, IPM 100 mg/kg)
[11] = tested on: mixedfunction oxidase activities (cytochrome P-450, aryl hydrocarbon hydroxylase, aminopyrinedemethylase); glutathione; settings: cited from earlier work
[12] = metabolite of CPA; cited from earlier work
HeLa cells = settings: in vitro; cited from earlier work
[13] = 18 mg/kg i.p. daily on days 11-15
[14] = 27 mg/kg i.p. daily on days 11-15
[15] = 40 mg/kg i.p. daily on days 11-15

## CS(=O)(=O)OCCNP(=O)(O)NCCCl [CM-IPM]
M5076 sarcoma [1]; [13]
  Days delay (T-C): 2.3 days
  Days to 2 Doublings: 11.6 days
  Tumor-free Surv/Total: 0/6
M5076 sarcoma [1]; [14]
  Days delay (T-C): 12.2 days
  Days to 2 Doublings: 21.5 days
  Tumor-free Surv/Total: 0/6
M5076 sarcoma [1]; [15]
  Days delay (T-C): 23.2 days
  Days to 2 Doublings: 32.5 days
  Tumor-free Surv/Total: 0/6
M5076 sarcoma [1]; Table 4, dose not given
  days T-C: 23.2 days
[2]
  comparative activity vs. MCF-7: equal in activity to Ifos, slightly superior to IPM and melphalan (the positive control) and significantly superior to CPA and all of the other analogs; also recorded: superior to MM-IPM, BC-IPM and CPA, slightly more active than IPM, and equally active to Ifos
  Days delay (T-C): > 39.7
P388 leukemia [3]
  log cell kill: 6.1 log
P388 leukemia [3]; ip, 100 mg/kg
  45-Day Surv/Total: 0/5
  % ILS: +82
  Approx. Net Log10 Change In Tumor Burden at End of Rx: -6.1
  Median Day of Death: 20.0
[4]
  comparative activity vs. three experimental leukemias and solid tumors: superior to IPM and other IPM analogs, including MM-IPM, vs. all three tumors
[5]
  activity vs. MX-1: only modest activity; also recorded: modestly active relative to CPA and Ifos
Mammary tumor 16/C
  tumor response / comparative activity vs. 16/C: superior to the clinical drugs CPA and Ifos and to MM-IPM; also recorded: comparable to BM-IPM vs. 16/C mammary tumor, and superior to CPA and Ifos vs. 16/C tumor

## O=P1(N(CCCl)CCCl)NCCCO1 (centres unmarked) [CPA, cyclophosphamide]
In vivo [6]
  MTD: 200 mg/kg
[2]
  Days delay (T-C): 6.7
In vivo [7]
  MTD: 200 mg/kg
M5076 sarcoma [8]
  comparative activity vs. M5076 sarcoma, historically: comparably active to CM-IPM
[5]
  activity vs. MX-1: high activity
[9]
  toxicity in patients: hemorrhagic cystitis
Mammary tumor 16/C
  tumor response / comparative activity vs. 16/C: none of which caused tumor regression
L1210/CPA leukemia
  % ILS (dying mice only): +57%
  Net log10 reduction in tumor burden after therapy: 4 log10
L1210/CPA leukemia; tumor burden at start 6.0 × 10^7 cells
  Day 60 survivors/total: 0/10
LOX-IMVI melanoma; IP, Q1DX1 (1), 40 mg/kg/dose
  55-Day Surv./Total: 0/5
  % ILS: +121%
  Median Day of Death: 42.0 days
LOX-IMVI melanoma; Table 6
  increase in life span (ILS): 121%
  survivors: no survivors
Lewis lung carcinoma
  comparative activity against Lewis lung carcinoma: equivalent activity at equal host toxicity
  cure rate: 50-70%
Lewis lung carcinoma; ip
  % ILS (increase in life span, excluding survivors): 68
  Log kill total (Log10 cell kill): > 6.8
  Tumour-free survivors: 5/10
P388 leukemia [10]
  comparative activity vs. P388 leukemia, historically: comparably active to CM-IPM
L1210/0 leukemia
  % ILS (dying mice only): +107%
  Net log10 reduction in tumor burden after therapy: 7 log10
L1210/0 leukemia; tumor burden at start 8.5 × 10^8 cells
  Day 60 survivors/total: 0/10

## C=CC=O [acrolein]
[11]
  liver toxicity: glutathione depletion and destruction of mixedfunction oxidase activities
[12]
  teratogenicity: teratogenic

## O=P(O)(NCCCl)NCCBr [BC-IPM]
[2]
  Days delay (T-C): 5.8
HeLa cells
  cytotoxicity to HeLa cells: cytotoxic to HeLa cells in vitro

## O=P(O)(NCCBr)NCCBr [BB-IPM]
[2]
  Days delay (T-C): 1.7
HeLa cells
  cytotoxicity to HeLa cells: cytotoxic to HeLa cells in vitro

— patent publication US6197760A (priority 2000, dated 2001)
